Measured values taken from US11034692B1 (Genentech, Inc., priority 2017, dated 2021).

The compounds below were run against HPK1 (Homo sapiens, UniProt Q92918) (assay: HPK1 Lantha Binding Assay ("Lanth")). Details: Table B1-1, read-out: HPK1 Ki (μM) (Lanth).
Summary of the method: (§1)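 Compounds in an 11-point 5-fold series were preincubated 1 h at 23 C with 2 nM kinase plus 2 nM Eu-anti-GST antibody. Then 15 nM Tracer222 was added for another hour, and time-resolved FRET was read at 665/615 nm. Ki values come from a Morrison tight-binding model that uses the tracer Kd.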

HPK1 (Homo sapiens, UniProt Q92918), sequence (Q92918 whole entry, looked up): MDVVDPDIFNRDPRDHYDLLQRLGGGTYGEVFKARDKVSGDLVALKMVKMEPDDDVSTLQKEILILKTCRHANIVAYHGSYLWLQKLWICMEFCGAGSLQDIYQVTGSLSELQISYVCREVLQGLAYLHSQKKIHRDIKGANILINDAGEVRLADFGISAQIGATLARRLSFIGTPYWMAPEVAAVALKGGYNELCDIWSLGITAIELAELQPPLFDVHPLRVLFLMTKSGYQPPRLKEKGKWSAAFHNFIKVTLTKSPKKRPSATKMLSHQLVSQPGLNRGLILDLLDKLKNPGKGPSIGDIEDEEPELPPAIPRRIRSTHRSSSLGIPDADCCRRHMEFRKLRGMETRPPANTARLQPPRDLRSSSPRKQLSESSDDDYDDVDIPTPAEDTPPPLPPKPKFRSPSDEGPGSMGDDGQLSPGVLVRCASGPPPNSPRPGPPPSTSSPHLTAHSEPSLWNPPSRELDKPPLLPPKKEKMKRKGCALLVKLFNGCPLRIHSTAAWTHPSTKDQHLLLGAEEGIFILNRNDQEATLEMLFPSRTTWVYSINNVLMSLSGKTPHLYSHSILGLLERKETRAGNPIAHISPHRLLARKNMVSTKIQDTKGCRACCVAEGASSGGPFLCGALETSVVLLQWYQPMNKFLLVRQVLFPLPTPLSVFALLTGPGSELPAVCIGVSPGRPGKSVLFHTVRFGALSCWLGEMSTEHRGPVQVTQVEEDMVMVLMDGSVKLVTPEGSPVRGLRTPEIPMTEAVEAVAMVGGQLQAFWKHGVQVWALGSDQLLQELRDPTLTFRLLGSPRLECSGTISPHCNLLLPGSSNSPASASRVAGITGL

Row | SMILES | Ki
1 | Cc1c(N)cncc1-c1cc2cc(NC(=O)[C@@H]3C[C@H]3C#N)ncc2c(N)n1 (racemic) [Compound 165, (±)-trans-N-(8-amino-6-(5-amino-4-methylpyridin-3-yl)-2,7-naphthyridin-3-yl)-2-cyanocyclopropanecarboxamide] | 0.00095 µM
2 | Cc1ccncc1-c1cc2cc(NC(=O)C(C)C#N)ncc2c(N)n1 (racemic) [Compound 38, N-(8-amino-6-(4-methylpyridin-3-yl)-2,7-naphthyridin-3-yl)-2-cyanopropanamide] | 0.0484 µM
3 | N#CCc1ccncc1-c1cc2cc(NC(=O)[C@H]3C[C@@H]3C#N)ncc2c(N)n1 (racemic) [Compound 227, (+/−)-trans-N-(8-amino-6-(4-(cyanomethyl)pyridin-3-yl)-2,7-naphthyridin-3-yl)-2-cyanocyclopropanecarboxamide] | 0.0387 µM
4 | CNC(=O)c1cc(C)c(-c2cc3cc(NC(=O)[C@H]4C[C@@H]4c4cnn(C)c4)ncc3c(N)n2)cn1 (racemic) [Compound 346, (±)-5-(1-amino-6-((trans)-2-(1-methyl-1H-pyrazol-4-yl)cyclopropane-1-carboxamido)-2,7-naphthyridin-3-yl)-N,4-dimethylpicolinamide] | 0.00244 µM
5 | CCc1ccncc1-c1cc2cc(Nc3cc(C(O)CC)ccn3)ncc2c(N)n1 (racemic) [Compound 82, (±)-1-{2-[8-Amino-6-(4-ethylpyridin-3-yl)-[2,7]naphthyridin-3-ylamino]-pyridin-4-yl}propan-1-ol] | 0.0004 µM
6 | CNC(=O)Cn1cc(Nc2cc3cc(-c4cnccc4C)nc(N)c3cn2)cn1 [Compound 184, 2-[4-[[8-amino-6-(4-methyl-3-pyridyl)-2,7-naphthyridin-3-yl]amino]pyrazol-1-yl]-N-methyl-acetamide] | 0.0025 µM
7 | Cc1cc2[nH]c(=O)oc2cc1-c1cc2cc(NC(=O)[C@@H]3C[C@H]3c3cn[nH]c3)ncc2c(N)n1 (racemic) [Compound 144, (±)-trans-N-[8-amino-6-(5-methyl-2-oxo-3H-1,3-benzoxazol-6-yl)-2,7-naphthyridin-3-yl]-2-(1H-pyrazol-4-yl)cyclopropanecarboxamide] | 0.0011 µM
8 | CNC(=O)c1ccc(-c2cc3cc(NC(=O)[C@@H]4C[C@@H]4F)ncc3c(N)n2)c(C)c1 (racemic) [Compound 49, 4-(1-amino-6-((cis)-2-fluorocyclopropanecarboxamido)-2,7-naphthyridin-3-yl)-N,3-dimethylbenzamide] | 0.00682 µM

Same assay, conditions: Table B1-2, read-out: HPK1 Ki, L = Lanth

Row | SMILES | Ki
9 | COC(=O)c1cc(C)c(-c2cc3cc(NC(=O)[C@H]4C[C@@H]4c4cnn(C)c4)ncc3c(N)n2)cn1 (single isomer, unassigned) [Compound 402] | 0.00026 µM

What follows are compounds tested against HPK1 (assay: HPK1 Lantha Binding Assay ("Lanth")). Details: Table B1-1, read-out: HPK1 Ki (μM) (Lanth).
Summary of the method: as §1

Row | SMILES | Ki
10 | CCc1c(-c2cnccc2C)nc(N)c2cnc(NC(=O)[C@@H]3C[C@H]3CC#N)cc12 (stereo in doubt) [Compound 271, (1R,2S)—N-[8-amino-5-ethyl-6-(4-methylpyridin-3-yl)-2,7-naphthyridin-3-yl]-2-(cyanomethyl)cyclopropane-1-carboxamide] | 0.768 nM
11 | Cc1ccncc1-c1cc2cc(NC(=O)Nc3ccccc3C#N)ncc2c(N)n1 [Compound 171, 1-[8-amino-6-(4-methyl-3-pyridyl)-2,7-naphthyridin-3-yl]-3-(2-cyanophenyl)urea] | 1500 nM
12 | Cn1cc([C@H]2C[C@@H]2C(=O)Nc2cc3cc(-c4c(F)cccc4Cl)nc(N)c3cn2)cn1 [Compound 303, (1S,2S)—N-(8-amino-6-(2-chloro-6-fluorophenyl)-2,7-naphthyridin-3-yl)-2-(1-methyl-H-pyrazol-4-yl)cyclopropanecarboxamide] | 0.027 nM
13 | Nc1nc(-c2cnccc2CCO)cc2cc(NC(=O)[C@@H]3C[C@H]3c3cnsc3)ncc12 [Compound 246, (1R,2R)—N-(8-amino-6-(4-(2-hydroxyethyl)pyridin-3-yl)-2,7-naphthyridin-3-yl)-2-(isothiazol-4-yl)cyclopropanecarboxamide] | 0.0455 nM
14 | COc1ccncc1-c1cc2cc(NC(=O)[C@@H]3C[C@@H]3F)ncc2c(N)n1 [Compound 10, (1S,2S)—N-(8-amino-6-(4-methoxypyridin-3-yl)-2,7-naphthyridin-3-yl)-2-fluorocyclopropanecarboxamide] | 1.73 nM
15 | COc1ccc(C)c(-c2cc3cc(NC(=O)[C@H]4C[C@@H]4c4cnn(C)c4)ncc3c(N)n2)c1 [Compound 288, (1S,2S)—N-[8-amino-6-(5-methoxy-2-methylphenyl)-2,7-naphthyridin-3-yl]-2-(1-methyl-1H-pyrazol-4-yl)cyclopropane-1-carboxamide] | 6.19 nM
16 | CCc1ccncc1-c1cc2cc(Nc3cn[nH]c3)ncc2c(N)n1 [Compound 75, 3-(4-Ethylpyridin-3-yl)-N6-(1H-pyrazol-4-yl)-[2,7]naphthyridine-1,6-diamine] | 0.8 nM
17 | Cc1c(N)cncc1-c1cc2cc(NC(=O)[C@H]3C[C@@H]3CC#N)ncc2c(N)n1 [Compound 247, (1S,2R)—N-[8-amino-6-(5-amino-4-methylpyridin-3-yl)-2,7-naphthyridin-3-yl]-2-(cyanomethyl)cyclopropane-1-carboxamide] | 0.0219 nM
18 | Cc1ccncc1-c1cc2cc(NC(=O)[C@H]3C[C@@H]3C3CCOCC3)ncc2c(N)n1 [Compound 324, (1S,2R)—N-[8-amino-6-(4-methylpyridin-3-yl)-2,7-naphthyridin-3-yl]-2-(oxan-4-yl)cyclopropane-1-carboxamide] | 0.48 nM
19 | CCc1ccncc1-c1cc2cc(NCc3ccn[nH]3)ncc2c(N)n1 [Compound 105, N6-((1H-pyrazol-5-yl)methyl)-3-(4-ethylpyridin-3-yl)-2,7-naphthyridine-1,6-diamine] | 40.2 nM
20 | N#C[C@H]1C[C@@H]1C(=O)Nc1cc2cc(-c3cnccc3-c3cn[nH]c3)nc(N)c2cn1 [Compound 236, (1S,2S)—N-(6-(4-(1H-pyrazol-4-yl)pyridin-3-yl)-8-amino-2,7-naphthyridin-3-yl)-2-cyanocyclopropanecarboxamide] | 23.3 nM
21 | Cc1ccncc1-c1cc2cc(Nc3cnn([C@H]4CCN(C)C4=O)c3)ncc2c(N)n1 [Compound 250, (3S)-3-(4-[[8-amino-6-(4-methylpyridin-3-yl)-2,7-naphthyridin-3-yl]amino]-1H-pyrazol-1-yl)-1-methylpyrrolidin-2-one] | 0.184 nM
22 | Cc1ccncc1-c1cc2cc(NC(=O)C(C)(C)O)ncc2c(N)n1 [Compound 39, N-(8-amino-6-(4-methylpyridin-3-yl)-2,7-naphthyridin-3-yl)-2-hydroxy-2-methylpropanamide] | 2030 nM
23 | CCc1ccncc1-c1cc2cc(Nc3cc[nH]n3)ncc2c(N)n1 [Compound 77, 3-(4-Ethylpyridin-3-yl)-N6-(1H-pyrazol-3-yl)-[2,7]naphthyridine-1,6-diamine] | 0.6 nM
24 | Cc1ccncc1-c1cc2cc(Nc3ccc(N4CCNCC4=O)cc3)ncc2c(N)n1 [Compound 265, 1-(4-[[8-amino-6-(4-methylpyridin-3-yl)-2,7-naphthyridin-3-yl]amino]phenyl)piperazin-2-one] | 0.249 nM
25 | CCc1ccncc1-c1cc2cc(Nc3cnn(C4CCNCC4)c3)ncc2c(N)n1 [Compound 78, 3-(4-Ethylpyridin-3-yl)-N6-(1-piperidin-4-yl-1H-pyrazol-4-yl)-[2,7] naphthyridine-1,6-diamine] | 0.1 nM
26 | CCc1ccncc1-c1cc2cc(NC(=O)CCC(N)=O)ncc2c(N)n1 [Compound 29, N′-[8-amino-6-(4-ethyl-3-pyridyl)-2,7-naphthyridin-3-yl]butanediamide] | 14 nM
27 | Cc1ccccc1-c1cc2cc(NC(=O)[C@@H]3C[C@H]3c3cnn(C)c3)ncc2c(N)n1 [Compound 298, (1R,2R)—N-[8-amino-6-(2-methylphenyl)-2,7-naphthyridin-3-yl]-2-(1-methyl-1H-pyrazol-4-yl)cyclopropane-1-carboxamide] | 0.932 nM
28 | Cc1ccc(C#N)cc1-c1cc2cc(NC(=O)[C@@H]3C[C@H]3c3cnn(C)c3)ncc2c(N)n1 [Compound 300, (1R,2R)—N-[8-amino-6-(5-cyano-2-methylphenyl)-2,7-naphthyridin-3-yl]-2-(1-methyl-1H-pyrazol-4-yl)cyclopropane-1-carboxamide] | 1.36 nM
29 | Cc1ccncc1-c1cc2cc(NCC(F)F)ncc2c(N)n1 [Compound 338, N6-(2,2-difluoroethyl)-3-(4-methylpyridin-3-yl)-2,7-naphthyridine-1,6-diamine] | 345 nM
30 | CC(=O)N1CC(n2cc(Nc3cc4cc(-c5cnccc5C)nc(N)c4cn3)cn2)C1 [Compound 161, 1-[3-[4-[[8-amino-6-(4-methyl-3-pyridyl)-2,7-naphthyridin-3-yl]amino]pyrazol-1-yl]azetidin-1-yl]ethanone] | 0.02 nM
31 | Cc1ccncc1-c1cc2cc(NC(=O)[C@H]3[C@H](C)[C@@H]3c3cnn(C)c3)ncc2c(N)n1 [Compound 327, (1S,2R,3S)—N-[8-amino-6-(4-methylpyridin-3-yl)-2,7-naphthyridin-3-yl]-2-methyl-3-(1-methyl-1H-pyrazol-4-yl)cyclopropane-1-carboxamide] | 1.43 nM
32 | Cc1ccncc1-c1cc2cc(NC(=O)[C@H]3C[C@]34CCNC(=O)C4)ncc2c(N)n1 [Compound 313, (1S,3R)—N-[8-amino-6-(4-methylpyridin-3-yl)-2,7-naphthyridin-3-yl]-5-oxo-6-azaspiro[2.5]octane-1-carboxamide] | 0.02 nM
33 | Cc1ccncc1-c1cc2cc(Nc3ccc(CS(N)(=O)=O)cc3)ncc2c(N)n1 [Compound 264, (4-[[8-Amino-6-(4-methylpyridin-3-yl)-2,7-naphthyridin-3-yl]amino]phenyl)methanesulfonamide] | 0.134 nM

Same assay, conditions: Table B1-2, read-out: HPK1 Ki, L = Lanth

Row | SMILES | Ki
34 | Cc1cc(C2=N[C@@H](C(C)C)CO2)ncc1-c1cc2cc(NC(=O)[C@H]3C[C@@H]3c3cnn(C)c3)ncc2c(N)n1 (stereo in doubt) [Compound 384, trans-N-(8-amino-6-(6-((S)-4-isopropyl-4,5-dihydrooxazol-2-yl)-4-methylpyridin-3-yl)-2,7-naphthyridin-3-yl)-2-(1-methyl-1H-pyrazol-4-yl)cyclopropane-1-carboxamide] | 1.8 nM
